Measurements as given in EP4703354A1, “COMPOUND AS CCR6 ANTAGONIST, AND PHARMACEUTICAL COMPOSITION AND USE THEREOF” (Wuhan Createrna Science and Technology Co.,Ltd., priority 2023, dated 2024).

Key:
human CCR6 = molecular target: T1, human CCR6 (Homo sapiens, UniProt P51684); assay: human CCR6 calcium flux activity (FLIPR, HEK293 cells stably expressing human CCR6, CCL20 stimulation); type: cell-based; settings: for IC50: HEK293 cells stably expressing human CCR6, EC80 human MIP-3 alpha/CCL20, read-out: CCR6 inhibitory activity, IC50; for CCR6 selectivity: ratio of CXCR2 IC50 to CCR6 IC50
T1 construct: expressed in transfected cells; host or cells: HEK293
T1 sequence (P51684 1-374): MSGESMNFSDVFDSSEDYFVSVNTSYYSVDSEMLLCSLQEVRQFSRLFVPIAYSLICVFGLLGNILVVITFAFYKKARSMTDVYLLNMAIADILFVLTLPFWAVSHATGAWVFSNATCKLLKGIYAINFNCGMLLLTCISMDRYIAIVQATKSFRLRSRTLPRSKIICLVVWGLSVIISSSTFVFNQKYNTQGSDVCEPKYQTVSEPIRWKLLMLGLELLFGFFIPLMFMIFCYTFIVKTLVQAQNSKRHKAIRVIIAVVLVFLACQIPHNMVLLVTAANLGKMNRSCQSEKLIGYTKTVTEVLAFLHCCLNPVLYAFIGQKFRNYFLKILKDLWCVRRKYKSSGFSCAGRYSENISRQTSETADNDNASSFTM
In short: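 Compounds preincubated with Fluo-4 Direct-loaded cells 50 min at 37 °C, then 10 min at room temperature, before CCL20 challenge at EC80. Fluorescence (ex 494/em 516 nm) recorded 90 s; max−min signal gives inhibition, four-parameter fit yields IC50.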

human CXCR2 = molecular target: T2, human CXCR2 (Homo sapiens, UniProt P25025); assay: human CXCR2 calcium flux activity (FLIPR, HEK293 cells stably expressing human CXCR2, IL-8 stimulation); type: cell-based; settings: HEK293 cells stably expressing human CXCR2, EC80 human IL-8; read-out: CXCR2 inhibitory activity, IC50
T2 construct: expressed in transfected cells; host or cells: HEK293
T2 sequence (P25025 1-360): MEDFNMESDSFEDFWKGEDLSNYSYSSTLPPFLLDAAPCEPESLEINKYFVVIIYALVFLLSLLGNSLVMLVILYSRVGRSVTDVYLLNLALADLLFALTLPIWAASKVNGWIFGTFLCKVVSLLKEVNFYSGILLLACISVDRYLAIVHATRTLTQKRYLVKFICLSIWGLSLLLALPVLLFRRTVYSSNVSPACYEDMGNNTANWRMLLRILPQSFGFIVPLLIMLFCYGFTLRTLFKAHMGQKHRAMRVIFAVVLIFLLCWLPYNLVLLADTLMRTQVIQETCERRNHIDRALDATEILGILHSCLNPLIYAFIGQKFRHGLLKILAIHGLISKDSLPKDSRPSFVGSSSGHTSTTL
Procedure: The activity of the compounds was evaluated using HEK293 cells stably expressing human CXCR2 via the FLIPR platform. A 384-well black cell culture plate (Greiner, 781946) was used, with a seeding density of 20,000 cells/well, and incubated overnight at 37°C in a 5% CO2 incubator. The culture medium in the cell plate wells was removed, and 20 µL of Fluo-4 Direct™ Calcium Assay Buffer (Invitrogen, F10471, Component C), 20 µL of 2× Fluo-4 Direct™ Calcium Assay Reagent (Invitrogen, F10471, Component A) working solution, and 10 µL of 6× test compound working solution were sequentially added to each well. The cell plate was incubated in a 37 °C, 5% CO2 incubator for 50 min, followed by a 10 min incubation at room temperature. Additionally, a 6×EC80 human IL-8 (Sigma, SRP3311) working solution was prepared. After the incubation was completed, 10 µL/well of the 6×EC80 human IL-8 working solution was transferred to the corresponding cell wells using a FLIPR instrument, and the fluorescence signal changes at an excitation wavelength of 494 nm and an emission wavelength of 516 nm were recorded over 130 s. The difference between the maximum fluorescence signal (RFUMax) and the minimum fluorescence signal (RFUMin) was used as the output signal. The compound inhibition rate and the log value of the compound concentration were calculated, and a four-parameter fitting analysis was performed using GraphPad Prism 8 software to obtain the IC50 value of the test compound. Table 1. Inhibitory activity data of compounds against CCR6 and CXCR2

[1] = in vitro liver microsome metabolic stability, human; type: in vitro ADME; settings: Human liver microsomes, 37°C
Procedure: (§1) Preparation of working solutions for test compounds and standards: An appropriate amount of the compound was accurately weighed and dissolved in a corresponding volume of suitable solvent to prepare 1 mM stock solutions of the test compounds and standards. The stock solutions were then diluted with appropriate solvent to obtain 100 µM working solutions of the test compounds, ensuring that the DMSO content in the working solutions remained below 10%.
(§2) The internal standard compound testosterone (or tolbutamide) and its corresponding solvent, internal standard concentration (200 ng/mL), were selected based on the properties of the test compound.
(§3) • Solution A: 0.1 mol/L K2HPO4 (2.28 g K2HPO4·3H2O was dissolved in 100 mL of double-distilled water); • Solution B: 0.1 mol/L KH2PO4 (1.36 g KH2PO4 was dissolved in 100 mL of double-distilled water); • 80.2 mL of Solution A and 19.8 mL of Solution B were mixed thoroughly, and the pH was adjusted to 7.4.
(§4) 37.5 mg of glycine was weighed, dissolved in 100 mL of ultrapure water, and adjusted to pH 8.0 with NaOH.
(§5) 1.25 mg of glucose-6-phosphate dehydrogenase (400 U/mg) was weighed (the specific amount weighed was calculated based on the activity of the purchased glucose-6-phosphate dehydrogenase), dissolved in 1 mL of glycine buffer to a concentration of 500 U/mL, aliquoted into 20 µL per tube, and stored at -20°C for future use.
(§6) 7.83 mg of NADP, 0.06 mL of D-glucose-6-phosphate (260 mg/mL), and 10.17 mg of MgCl2·6H2O were precisely weighed.
(§7) The mixture was dissolved in 1 mL of pure water. The cofactor ratio composition: NADP 10 mM, D-glucose-6-phosphate 60 mM, MgCl2·6H2O 50 mM.
(§8) The reaction system (taking a 500 µL system as an example) was composed of the following solution ratios: 416.5 µL phosphate buffer, 5 µL compound working solution, 25 µL liver microsomes, 3.5 µL glucose-6-phosphate dehydrogenase, and 50 µL cofactor solution. The total incubation volume could be adjusted according to experimental requirements.
(§9) 416.5 µL of phosphate buffer was taken, 25 µL of liver microsomes, 3.5 µL of glucose-6-phosphate dehydrogenase, and 50 µL of cofactor solution were added, vortexed twice to mix, and preincubated in a 37°C water bath for 5 minutes. Then, 5 µL of the test compound working solution was added, vortexed twice to mix, each time for 2-3 seconds, and placed in a 37°C water bath to initiate the reaction, with two parallel samples set. At 0.5 min, 1 min, 2 min, 5 min, 15 min, and 30 min after the reaction, 50 µL of the mixture was taken and added to centrifuge tubes containing 200 µL of 0°C pre-cooled internal standard working solution to terminate the reaction, vortexed for 1 minute to mix, and centrifuged at 13,000 rpm for 10 minutes in a 4°C pre-cooled high-speed centrifuge. The supernatant was collected for analysis. After the compound was added and vortex-mixed, 50 µL of the mixture was rapidly transferred to a centrifuge tube containing 200 µL of a pre-cooled (0°C) internal standard working solution to terminate the reaction, vortex-mixed for 1 minute, and used as the relative zero-point sample (relative to the standard group). The sample was then placed into a 37°C water bath to initiate the reaction, and timing was started.
(§10) The sample analysis of the test compound was performed using the liquid chromatography-tandem mass spectrometry (LCMS/MS) method. The semi-quantitative determination was performed using the ratio of the analyte peak area to the internal standard peak area. The retention times of the analyte and internal standard, chromatogram acquisition, and chromatogram integration were processed using Analyst software.
(§11) The in vitro elimination rate constant k of the test compound and the control compound was determined by converting the ratio of the peak area of the test compound to the internal standard into the remaining rate, and T1/2 was then calculated according to the following formula. T1/2 = (Ln2)/(k) = (0.693)/(k) [formula] Table 3. […]

[2] = in vitro liver microsome metabolic stability, rat; type: in vitro ADME; settings: Rat liver microsomes, 37°C
Procedure: as §1, §2, §3, §4, §5, §6, §7, §8, §9, §10, §11

[3] = in vitro liver microsome metabolic stability, beagle dog; type: in vitro ADME; settings: Beagle dog liver microsomes, 37°C
Procedure: as §1, §2, §3, §4, §5, §6, §7, §8, §9, §10, §11

[4] = in vivo pharmacokinetic study in SD rats; settings: male, rat, plasma
In short: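 Male SD rats (180-200 g), 3 per route: single fasted oral gavage in 1% Tween 80 or tail-vein IV bolus in 50% PEG400. Orbital blood into EDTA-K2 sampled to 8 h; plasma analysed and PK parameters derived by non-compartmental analysis.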

## CN(C)C(=O)c1nccc(Nc2c(N[C@@H](c3ncccc3Cl)C3(C)CCCC3)c(=O)c2=O)c1O [compound 019, (R)-4-((2-(((3-chloropyridin-2-yl)(1-methylcyclopentyl)methyl)amino)-3,4-dioxocyclobut-1-en-1-yl)amino)-3-hydroxy-N,N-dimethylpicolinamide]
Human CCR6
  IC50: 5 nM
  CCR6 selectivity: 364.2
Human CXCR2
  IC50: 1820 nM

## CN(C)C(=O)c1nccc(Nc2c(N[C@@H](c3ccc(Cl)cn3)C3(C)CCCC3)c(=O)c2=O)c1O [compound 013, (R)-4-((2-(((5-chloropyridin-2-yl)(1-methylcyclopentyl)methyl)amino)-3,4-dioxocyclobut-1-en-1-yl)amino)-3-hydroxy-N,N-dimethylpicolinamide]
Human CCR6
  IC50: 19.3 nM
[1]
  Liver microsome T1-2 (min) Human: 345.84 min
[2]
  Liver microsome T1-2 (min) Rat: 54.23 min
[3]
  Liver microsome T1-2 (min) Beagle dog: 252.63 min

## CN(C)C(=O)c1nccc(Nc2c(N[C@@H](c3ncccc3CF)C3(C)CCCC3)c(=O)c2=O)c1O [compound 016, (R)-4-((2-(((3-(fluoromethyl)pyridin-2-yl)(1-methylcyclopentyl)methyl)amino)-3,4-dioxocyclobut-1-en-1-yl)amino)-3-hydroxy-N,N-dimethylpicolinamide]
Human CCR6
  IC50: 55.8 nM
  CCR6 selectivity: 494.9
Human CXCR2
  IC50: 27600 nM

## Cc1ccc(F)nc1[C@H](Nc1c(Nc2ccnc(C(=O)N(C)C)c2O)c(=O)c1=O)C1(C)CCCC1 [compound 014, (R)-4-((2-(((6-fluoro-3-methylpyridin-2-yl)(1-methylcyclopentyl)methyl)amino)-3,4-dioxocyclobut-1-en-1-yl)amino)-3-hydroxy-N,N-dimethylpicolinamide]
Human CCR6
  IC50: 14.3 nM
  CCR6 selectivity: 471.4
Human CXCR2
  IC50: 6740 nM

## Cc1cccnc1[C@H](Nc1c(Nc2ccc(F)c(C(=O)N(C)C)c2O)c(=O)c1=O)C1(C)CC(F)(F)C1 [compound 089, (R)-3-((2-(((3,3-difluoro-1-methylcyclobutyl)(3-methylpyridin-2-yl)methyl)amino)-3,4-dioxocyclobut-1-en-1-yl)amino)-6-fluoro-2-hydroxy-N,N-dimethylbenzamide]
[4]; 1 mg/kg PO vs 1 mg/kg IV, read-out: Oral bioavailability F (%)
  bioavailability: 21.1%
[4]; 1 mg/kg, IV
  AUC(0-t): 772 ng·h/mL
  Cmax: 4300 ng/mL
[4]; 1 mg/kg, PO
  AUC(0-t): 163 ng·h/mL
  Cmax: 96.4 ng/mL
  half-life: 2.61 h
[1]
  Liver microsome T1-2 (min) Human: 331.10 min
[2]
  Liver microsome T1-2 (min) Rat: 88.93 min
[3]
  Liver microsome T1-2 (min) Beagle dog: 258.52 min

## CC#CC(Nc1c(Nc2ccnc(C(=O)N(C)C)c2O)c(=O)c1=O)C1(C)CCC(F)(F)C1 (stereo not drawn) [compound 111, 4-((2-((1-(3,3-difluoro-1-methylcyclopentyl)but-2-yn-1-yl)amino)-3,4-dioxocyclobut-1-en-1-yl)amino)-3-hydroxy-N,N-dimethylpicolinamide]
Human CCR6
  IC50: 106 nM
[1]
  Liver microsome T1-2 (min) Human: 548.28 min
[2]
  Liver microsome T1-2 (min) Rat: 266.64 min
[3]
  Liver microsome T1-2 (min) Beagle dog: 982.5 min

## CN(C)C(=O)c1nccc(Nc2c(N[C@@H](C#CC3CCC3)C3(C)CCCC3)c(=O)c2=O)c1O [compound 116, (R)-4-((2-((3-cyclobutyl-1-(1-methylcyclopentyl)prop-2-yn-1-yl)amino)-3,4-dioxocyclobut-1-en-1-yl)amino)-3-hydroxy-N,N-dimethylpicolinamide]
Human CCR6
  IC50: 28.9 nM
  CCR6 selectivity: 13.1
Human CXCR2
  IC50: 379 nM

## CC1([C@@H](Nc2c(Nc3ccnc(C(=O)N4CCOCC4)c3O)c(=O)c2=O)c2nc(F)ccc2F)CCCC1 [compound 060, (R)-3-(((3,6-difluoropyridin-2-yl)(1-methylcyclopentyl)methyl)amino)-4-((3-hydroxy-2-(morpholine-4-carbonyl)pyridin-4-yl)amino)cyclobut-3-ene-1,2-dione]
Human CCR6
  IC50: 1.9 nM
  CCR6 selectivity: 207.0
Human CXCR2
  IC50: 393 nM

## Cc1nccnc1[C@H](Nc1c(Nc2ccc(Cl)c(C(=O)N(C)C)c2O)c(=O)c1=O)C1(C)CCCC1 [compound 078, (R)-6-chloro-2-hydroxy-N,N-dimethyl-3-((2-(((1-methylcyclopentyl)(3-methylpyrazin-2-yl)methyl)amino)-3,4-dioxocyclobut-1-en-1-yl)amino)benzamide]
Human CCR6
  IC50: 56.2 nM
[1]
  Liver microsome T1-2 (min) Human: 1014.44 min
[2]
  Liver microsome T1-2 (min) Rat: 53.62 min
[3]
  Liver microsome T1-2 (min) Beagle dog: 1869.75 min
